Earlier results in patent US20060073479A1 (priority 2001, published 2006).

What was measured:
[1] = system: patients treated with paclitaxel; conditions: in vivo
CYP2C8 = target: T1, CYP2C8 (Homo sapiens, UniProt P10632); conditions: in vitro studies
T1 sequence (P10632 1-490): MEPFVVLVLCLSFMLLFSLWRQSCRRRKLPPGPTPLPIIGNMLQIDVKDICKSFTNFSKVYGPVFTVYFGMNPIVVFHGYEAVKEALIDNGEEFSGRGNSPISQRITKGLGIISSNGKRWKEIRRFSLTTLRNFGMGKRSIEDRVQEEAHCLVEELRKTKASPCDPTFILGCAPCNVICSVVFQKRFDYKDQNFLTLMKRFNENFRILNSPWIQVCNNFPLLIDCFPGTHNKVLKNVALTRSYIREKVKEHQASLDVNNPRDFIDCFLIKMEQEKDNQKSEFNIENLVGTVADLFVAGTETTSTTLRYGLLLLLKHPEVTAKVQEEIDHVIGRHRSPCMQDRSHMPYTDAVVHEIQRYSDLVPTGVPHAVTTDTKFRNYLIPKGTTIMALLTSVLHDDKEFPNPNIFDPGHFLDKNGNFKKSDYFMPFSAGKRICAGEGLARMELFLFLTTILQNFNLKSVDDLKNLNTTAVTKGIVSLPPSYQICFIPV

CYP3A4 = CYP3A4 (Homo sapiens, UniProt P08684); conditions: in vitro studies
CYP3A4, sequence (P08684 whole entry): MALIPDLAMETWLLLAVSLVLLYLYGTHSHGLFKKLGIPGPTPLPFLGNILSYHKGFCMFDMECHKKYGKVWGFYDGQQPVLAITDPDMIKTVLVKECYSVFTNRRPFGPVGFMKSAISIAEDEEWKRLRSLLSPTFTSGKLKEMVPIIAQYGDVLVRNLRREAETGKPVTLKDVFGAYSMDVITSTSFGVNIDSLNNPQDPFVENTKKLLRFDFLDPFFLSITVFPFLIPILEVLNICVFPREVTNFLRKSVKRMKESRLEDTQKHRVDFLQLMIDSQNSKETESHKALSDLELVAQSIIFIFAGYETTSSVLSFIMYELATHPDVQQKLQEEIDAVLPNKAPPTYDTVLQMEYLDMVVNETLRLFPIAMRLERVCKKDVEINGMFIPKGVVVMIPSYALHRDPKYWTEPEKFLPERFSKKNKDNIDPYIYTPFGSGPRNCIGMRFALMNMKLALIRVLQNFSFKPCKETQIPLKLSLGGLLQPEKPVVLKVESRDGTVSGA

[2] = urine and feces

| SMILES | fraction of treated patients refractory to beneficial effect [1] | metabolism by CYP2C8 (CYP2C8) | metabolism by CYP3A4 (CYP3A4) | metabolism / excretion in words [2] |
| --- | --- | --- | --- | --- |
| CC(=O)O[C@H]1C(=O)[C@@]2(C)[C@H]([C@H](OC(=O)c3ccccc3)[C@]3(O)C[C@H](OC(=O)[C@H](O)[C@@H](NC(=O)c4ccccc4)c4ccccc4)C(C)=C1C3(C)C)[C@]1(OC(C)=O)CO[C@@H]1C[C@@H]2O [paclitaxel] | about one-third | metabolized by CYP2C8 | to a lesser extent by CYP3A4 |  |
| N.N.O=C([O-])C1(C(=O)[O-])CCC1.[Pt+2] [carboplatin] |  |  |  | relatively stable and excreted largely in unchanged form in the urine |
